Each block holds one molecule with its values, some of them ahead of it. The source made the active and inactive calls.
Tests used:
[1] = target: T1, Microphthalmia-associated transcription factor (Homo sapiens, UniProt O75030); assay: TRPM1 promoter luciferase signal decrease, dose response, MITF inhibitor project, cell-based, SK-MEL-5, cherry-picked, set 3 (AID 493073); format: functional
T1 sequence (O75030 whole entry): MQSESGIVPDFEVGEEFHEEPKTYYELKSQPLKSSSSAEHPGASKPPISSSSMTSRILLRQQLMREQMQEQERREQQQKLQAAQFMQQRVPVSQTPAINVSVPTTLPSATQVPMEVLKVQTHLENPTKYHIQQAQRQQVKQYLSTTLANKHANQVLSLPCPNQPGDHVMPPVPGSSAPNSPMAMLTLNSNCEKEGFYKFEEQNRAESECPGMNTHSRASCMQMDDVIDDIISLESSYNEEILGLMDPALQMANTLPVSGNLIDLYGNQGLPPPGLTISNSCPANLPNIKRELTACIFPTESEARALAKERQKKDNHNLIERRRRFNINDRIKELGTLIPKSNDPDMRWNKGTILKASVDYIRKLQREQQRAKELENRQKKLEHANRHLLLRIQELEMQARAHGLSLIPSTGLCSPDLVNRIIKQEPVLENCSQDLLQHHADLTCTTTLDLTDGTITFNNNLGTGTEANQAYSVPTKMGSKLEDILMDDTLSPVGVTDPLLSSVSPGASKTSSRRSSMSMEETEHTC

[2] = target: Matrix metalloproteinase-14 (Homo sapiens, UniProt P50281); assay: Dose Response confirmation of uHTS hits for a small molecule inhibitors of MT1-MMP activation in a fluorescence assay set 1.; format: functional
Cytochrome P450 3A4 = Cytochrome P450 3A4 (Homo sapiens, UniProt P08684);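 also: CYP3A4 tested as one member of a cytochrome P450 panel screen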
Sequence of Cytochrome P450 3A4 (P08684 whole entry, the tested form may be a part): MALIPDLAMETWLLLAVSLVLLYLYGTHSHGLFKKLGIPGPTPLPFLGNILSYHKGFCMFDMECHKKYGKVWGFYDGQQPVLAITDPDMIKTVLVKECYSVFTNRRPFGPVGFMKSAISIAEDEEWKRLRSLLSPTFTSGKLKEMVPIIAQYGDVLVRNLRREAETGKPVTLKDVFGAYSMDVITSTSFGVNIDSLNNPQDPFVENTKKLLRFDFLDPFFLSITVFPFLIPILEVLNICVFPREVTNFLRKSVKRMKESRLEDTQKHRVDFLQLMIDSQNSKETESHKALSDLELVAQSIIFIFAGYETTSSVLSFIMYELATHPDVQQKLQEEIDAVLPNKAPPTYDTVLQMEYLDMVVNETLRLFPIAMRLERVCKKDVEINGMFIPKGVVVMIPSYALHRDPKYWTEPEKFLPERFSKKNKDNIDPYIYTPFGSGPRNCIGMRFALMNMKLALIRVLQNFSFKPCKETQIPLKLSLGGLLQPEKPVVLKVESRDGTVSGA

[3] = inhibitors of HIV Env-driven cell fusion, dose response, cherry-pick (AID 652057); format: functional, cell-based
[4] = CEM21 lymphoblast cell cytotoxicity, dose response, cytotoxicity control for viral fusion inhibitor project, CellTiter-Glo luminescence, cherry-picked (AID 652042); format: functional, cell-based;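 also: potency for signal decrease meaning cytotoxicity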
[5] = off-target signal loss in HeLa-CEM21 co-culture – HeLa F-luc CTL cells, cherry-picked, counter-screen for HIV-1 Env fusion inhibitor project, dose response (AID 652040); format: functional, cell-based;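 also: potency for signal decrease marking cytotoxic or nonspecific inhibition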
[6] = ADAM10 inhibitors, peptide cleavage, dose response, biochemical, QFRET (AID 743254);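 also: ADAM10 enzyme with the DM2 quenched FRET peptide as substrate; EDANS fluorescence gain as the protease cuts the substrate; inhibitor potency against ADAM10 proteolytic activity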
[7] = target: Disintegrin and metalloproteinase domain-containing protein 17 (Homo sapiens, UniProt P78536); assay: ADAM17 protease inhibitors, dose response, counter-screen for ADAM10 exosite inhibitor project, biochemical, quenched FRET substrate (AID 743253)
Sequence of Disintegrin and metalloproteinase domain-containing protein 17 (P78536 whole entry, the tested form may be a part): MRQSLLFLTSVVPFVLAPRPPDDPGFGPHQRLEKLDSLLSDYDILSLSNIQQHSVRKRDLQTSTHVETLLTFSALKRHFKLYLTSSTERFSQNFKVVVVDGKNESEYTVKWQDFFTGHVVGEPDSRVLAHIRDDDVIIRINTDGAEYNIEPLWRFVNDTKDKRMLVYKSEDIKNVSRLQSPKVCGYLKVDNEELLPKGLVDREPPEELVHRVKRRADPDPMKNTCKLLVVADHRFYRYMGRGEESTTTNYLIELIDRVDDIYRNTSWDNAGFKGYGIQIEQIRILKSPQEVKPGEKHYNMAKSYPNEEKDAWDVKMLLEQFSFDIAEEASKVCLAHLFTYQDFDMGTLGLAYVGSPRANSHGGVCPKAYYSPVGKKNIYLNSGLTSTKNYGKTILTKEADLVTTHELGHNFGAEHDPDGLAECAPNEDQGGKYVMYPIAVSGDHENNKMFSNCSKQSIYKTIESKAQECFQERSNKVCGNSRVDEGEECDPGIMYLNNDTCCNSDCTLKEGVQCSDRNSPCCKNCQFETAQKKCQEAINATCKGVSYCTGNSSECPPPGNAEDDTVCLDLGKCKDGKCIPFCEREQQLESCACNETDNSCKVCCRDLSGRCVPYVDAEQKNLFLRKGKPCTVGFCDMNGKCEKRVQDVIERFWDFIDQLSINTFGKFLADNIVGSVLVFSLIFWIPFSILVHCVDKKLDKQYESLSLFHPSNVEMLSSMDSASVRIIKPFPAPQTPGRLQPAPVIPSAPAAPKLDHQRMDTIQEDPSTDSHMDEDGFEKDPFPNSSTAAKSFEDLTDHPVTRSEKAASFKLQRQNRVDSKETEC

[8] = cytotoxicity in HEK-293T cells, dose response, cytotoxicity control for BCR NF-kB inhibitor project, luminescence, B-cell screen hits (AID 489021); format: functional, cell-based;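 also: HEK-293T cells carrying an NF-kB luciferase reporter; cells exposed to compound for about 14 hours before viability readout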
[9] = target: 26S proteasome non-ATPase regulatory subunit 14 (Homo sapiens, UniProt O00487); assay: inhibition of proteasome subunit RPN11 – biochemical, fluorescence polarization, uHTS hits, confirmation (AID 602368); format: functional
Sequence of 26S proteasome non-ATPase regulatory subunit 14 (O00487 whole entry): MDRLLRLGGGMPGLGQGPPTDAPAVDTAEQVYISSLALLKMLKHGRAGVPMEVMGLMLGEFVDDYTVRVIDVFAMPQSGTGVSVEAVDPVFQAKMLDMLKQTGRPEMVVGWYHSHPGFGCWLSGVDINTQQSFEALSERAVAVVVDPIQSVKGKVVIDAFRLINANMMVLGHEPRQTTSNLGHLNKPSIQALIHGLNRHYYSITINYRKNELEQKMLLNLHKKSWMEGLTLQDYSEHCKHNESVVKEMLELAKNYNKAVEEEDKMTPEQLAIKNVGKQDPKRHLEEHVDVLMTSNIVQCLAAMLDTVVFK

[10] = target: 72 kDa type IV collagenase (Homo sapiens, UniProt P08253); assay: Dose Response validation of uHTS RPN11 inhibitor hits using a MMP-2 Fluorescence assay.; format: functional
Sequence of 72 kDa type IV collagenase (P08253 whole entry): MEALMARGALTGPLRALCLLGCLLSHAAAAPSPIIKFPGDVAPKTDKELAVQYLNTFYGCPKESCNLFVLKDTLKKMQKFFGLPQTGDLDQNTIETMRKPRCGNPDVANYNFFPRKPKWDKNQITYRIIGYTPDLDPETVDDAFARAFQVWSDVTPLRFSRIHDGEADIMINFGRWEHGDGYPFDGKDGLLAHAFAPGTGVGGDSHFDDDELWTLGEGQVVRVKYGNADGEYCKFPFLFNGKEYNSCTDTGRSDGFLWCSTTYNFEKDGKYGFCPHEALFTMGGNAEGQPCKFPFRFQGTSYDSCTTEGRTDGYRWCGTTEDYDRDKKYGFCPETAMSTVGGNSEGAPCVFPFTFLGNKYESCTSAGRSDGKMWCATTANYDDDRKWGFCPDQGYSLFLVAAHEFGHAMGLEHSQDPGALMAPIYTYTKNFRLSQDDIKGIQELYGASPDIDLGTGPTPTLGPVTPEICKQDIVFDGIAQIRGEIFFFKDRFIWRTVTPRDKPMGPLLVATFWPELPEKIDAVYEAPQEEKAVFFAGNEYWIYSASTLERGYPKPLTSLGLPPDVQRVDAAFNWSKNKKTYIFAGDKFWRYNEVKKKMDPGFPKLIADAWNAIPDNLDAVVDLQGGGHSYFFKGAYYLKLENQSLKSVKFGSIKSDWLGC

Prothrombin = Prothrombin (Bos taurus, UniProt P00735); assay: thrombin inhibition, dose response, biochemical, fluorescence polarization, uHTS hits (AID 602369); format: functional
Albumin = Albumin (Bos taurus, UniProt P02769); assay: Counterscreen for inhibitors of T-cell receptor (TCR)-CD3 interaction: Fluorescence-based biochemical high throughput dose response assay to identify inhibitors of T-cell receptor (TCR)-CD3 interaction using a TAMRA-labeled BSA probe.; format: functional
[11] = HepG2 cell cytotoxicity, dose response, cytotoxicity control, ATP luminescence, cherry-pick, activator set 2 (AID 1053143); format: functional, cell-based
[12] = target: Lysosomal acid glucosylceramidase (Homo sapiens, UniProt P04062); assay: Dose response cell-based high throughput screening assay to identify enhancers of beta-glucosidase activity. [Related pubchem assays: 784 ]; format: functional
Sequence of Lysosomal acid glucosylceramidase (P04062 whole entry): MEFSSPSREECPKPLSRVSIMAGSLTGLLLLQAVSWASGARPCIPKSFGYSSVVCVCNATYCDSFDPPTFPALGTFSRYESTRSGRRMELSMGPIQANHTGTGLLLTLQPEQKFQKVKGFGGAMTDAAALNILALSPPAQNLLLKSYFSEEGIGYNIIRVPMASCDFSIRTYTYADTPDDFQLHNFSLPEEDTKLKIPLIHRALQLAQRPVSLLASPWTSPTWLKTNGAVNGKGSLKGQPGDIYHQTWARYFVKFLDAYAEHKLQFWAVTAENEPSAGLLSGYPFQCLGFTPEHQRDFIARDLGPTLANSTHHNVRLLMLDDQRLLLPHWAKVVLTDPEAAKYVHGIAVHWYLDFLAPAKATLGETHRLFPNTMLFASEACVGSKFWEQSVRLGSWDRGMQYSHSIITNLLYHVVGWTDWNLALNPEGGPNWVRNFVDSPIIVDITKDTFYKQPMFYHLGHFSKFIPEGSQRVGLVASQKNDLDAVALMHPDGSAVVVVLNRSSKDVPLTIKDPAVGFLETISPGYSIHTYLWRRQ

cells [13] = conditions: A549
cells [14] = conditions: HEK293;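 also: cells exposed to compound for 48 hours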
[15] = target: 1-phosphatidylinositol 4,5-bisphosphate phosphodiesterase gamma-1 (Homo sapiens, UniProt P19174); assay: Counterscreen for inhibitors of phospholipase C isozymes (PLC-B3): Fluorescence-based biochemical high throughput dose response assay to identify inhibitors of phospholipase C isozymes (PLC-gamma1).
Sequence of 1-phosphatidylinositol 4,5-bisphosphate phosphodiesterase gamma-1 (P19174 whole entry): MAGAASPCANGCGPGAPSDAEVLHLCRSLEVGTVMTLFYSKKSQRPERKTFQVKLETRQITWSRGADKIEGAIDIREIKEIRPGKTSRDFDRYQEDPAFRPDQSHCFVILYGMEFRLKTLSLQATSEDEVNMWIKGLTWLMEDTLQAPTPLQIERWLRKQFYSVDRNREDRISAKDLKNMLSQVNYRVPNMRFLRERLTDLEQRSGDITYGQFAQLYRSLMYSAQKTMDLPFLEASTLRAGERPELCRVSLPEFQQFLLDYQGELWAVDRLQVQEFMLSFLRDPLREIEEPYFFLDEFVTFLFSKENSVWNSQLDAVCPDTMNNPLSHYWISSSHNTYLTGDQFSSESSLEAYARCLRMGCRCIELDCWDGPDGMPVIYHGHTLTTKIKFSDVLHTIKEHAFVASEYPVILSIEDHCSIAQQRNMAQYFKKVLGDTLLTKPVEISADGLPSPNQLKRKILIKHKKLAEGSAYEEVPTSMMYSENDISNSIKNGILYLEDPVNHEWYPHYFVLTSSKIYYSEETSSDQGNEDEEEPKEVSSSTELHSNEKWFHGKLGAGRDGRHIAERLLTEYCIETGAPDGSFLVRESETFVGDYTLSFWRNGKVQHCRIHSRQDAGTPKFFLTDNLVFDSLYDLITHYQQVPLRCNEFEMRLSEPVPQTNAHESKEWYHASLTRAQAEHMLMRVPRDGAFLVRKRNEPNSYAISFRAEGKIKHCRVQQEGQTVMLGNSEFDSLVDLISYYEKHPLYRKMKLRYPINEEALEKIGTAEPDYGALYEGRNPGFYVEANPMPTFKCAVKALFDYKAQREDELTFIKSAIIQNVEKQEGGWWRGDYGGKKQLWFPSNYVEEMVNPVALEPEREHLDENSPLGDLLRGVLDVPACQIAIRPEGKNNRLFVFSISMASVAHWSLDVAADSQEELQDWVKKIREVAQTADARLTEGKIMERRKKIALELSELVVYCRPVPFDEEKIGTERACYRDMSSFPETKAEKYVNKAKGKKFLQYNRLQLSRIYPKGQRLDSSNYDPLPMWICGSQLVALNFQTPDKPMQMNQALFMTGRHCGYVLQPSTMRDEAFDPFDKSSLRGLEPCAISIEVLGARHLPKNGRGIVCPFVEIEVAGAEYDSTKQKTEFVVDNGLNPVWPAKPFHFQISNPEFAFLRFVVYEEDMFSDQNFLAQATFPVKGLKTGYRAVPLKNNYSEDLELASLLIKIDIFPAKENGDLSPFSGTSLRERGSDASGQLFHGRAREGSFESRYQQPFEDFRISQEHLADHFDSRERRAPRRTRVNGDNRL

[16] = target: 1-phosphatidylinositol 4,5-bisphosphate phosphodiesterase beta-3 (Homo sapiens, UniProt Q01970); assay: Fluorescence-based biochemical high throughput dose response assay to identify inhibitors of phospholipase C isozymes (PLC-B3).
[17] = target: T2, Methionyl-tRNA synthetase, putative (Trypanosoma brucei brucei, UniProt Q38C91); format: functional, Trypanosoma brucei brucei strain 927/4 GUTat10.1
T2 sequence (Q38C91 whole entry): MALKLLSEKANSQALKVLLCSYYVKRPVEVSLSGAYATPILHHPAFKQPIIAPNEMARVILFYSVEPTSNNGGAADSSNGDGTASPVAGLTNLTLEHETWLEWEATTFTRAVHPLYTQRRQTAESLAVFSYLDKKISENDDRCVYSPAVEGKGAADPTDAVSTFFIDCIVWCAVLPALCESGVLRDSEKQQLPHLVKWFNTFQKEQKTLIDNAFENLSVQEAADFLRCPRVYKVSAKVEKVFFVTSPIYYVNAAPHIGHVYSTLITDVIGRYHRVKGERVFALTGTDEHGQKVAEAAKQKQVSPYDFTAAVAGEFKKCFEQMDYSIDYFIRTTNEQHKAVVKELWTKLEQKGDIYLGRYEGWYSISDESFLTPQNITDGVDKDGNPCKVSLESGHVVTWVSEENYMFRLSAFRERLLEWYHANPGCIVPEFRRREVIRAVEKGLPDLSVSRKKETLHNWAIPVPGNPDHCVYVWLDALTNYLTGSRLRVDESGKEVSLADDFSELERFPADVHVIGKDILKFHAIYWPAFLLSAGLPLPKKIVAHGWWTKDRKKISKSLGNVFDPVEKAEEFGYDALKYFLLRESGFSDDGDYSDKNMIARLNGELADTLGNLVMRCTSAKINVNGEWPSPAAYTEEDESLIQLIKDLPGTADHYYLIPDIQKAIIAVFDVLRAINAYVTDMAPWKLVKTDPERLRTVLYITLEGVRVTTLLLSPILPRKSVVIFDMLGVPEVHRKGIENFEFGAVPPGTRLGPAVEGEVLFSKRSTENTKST

[18] = Counterscreen for inhibitors of Trypanosoma brucei methionyl tRNA synthetase (MetRS): Luminescence-based cell-based high throughput dose response assay to identify compounds that are cytotoxic to Jurkat human T lymphocyte cells.; format: functional
[19] = target: T2, Methionyl-tRNA synthetase, putative; format: functional, Trypanosoma brucei brucei strain 927/4 GUTat10.1; remark: listed apart in the source
[20] = Late stage counterscreen for inhibitors of Trypanosoma brucei methionyl tRNA synthetase (MetRS): Luminescence-based cell-based high throughput dose response assay to identify compounds that are cytotoxic to Jurkat human T lymphocyte cells.; format: functional
[21] = target: Luciferin 4-monooxygenase (Photinus pyralis, UniProt P08659); assay: Counter Screen for Luciferase-based Assay Positives. [Related pubchem assays: 620, 618, 411 ]
[22] = growth suppression of PTEN-null colon cells, dose response, cell-based, HCT116 PTEN knockout (AID 1047); format: functional;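 also: HCT116 colon tumor cells with PTEN knocked out; cells exposed to compound for 60 hours before readout; potency for loss of cell viability measured by luminescence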
HT-1080 = assay: cytotoxicity in HT1080 fibrosarcoma cells, cell-based, fluorescence readout (AID 620); format: functional; conditions: Homo sapiens
[23] = growth suppression of beta-catenin-knockout colon cells, dose response, cell-based, HCT116, human colon tumor (AID 1045); format: functional;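 also: HCT116 colon tumor cells with beta catenin knocked out; cells exposed to compound for 60 hours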
[24] = target: Oxysterols receptor LXR-beta (Homo sapiens, UniProt P55055); format: functional, cell-based;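 also: agonist activity at LXR measured by a cell-based luminescence readout across a dose range, run as a counterscreen for daf-12 agonists; HEK293 cells with Gal4-LXR fusion and GAL4-driven luciferase reporter; potency for activation of Gal4-LXR reporter so compounds are agonists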
[25] = intracellular Trypanosoma cruzi inhibitors in host cells – cell-based, plate reader, cherry-pick samples, set 3, dose response (AID 651818); format: functional;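 also: compounds incubated with infected cells for about four days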
[26] = T. cruzi growth inhibition in host cells, dose response, cell-based, plate reader, dry powder, set 2 (AID 652275); format: functional
[27] = T. cruzi intracellular amastigote growth inhibition, dose response, imaging, CA-I/72 strain, bovine embryo skeletal muscle, dry powder (AID 651885); format: functional, cell-based
[28] = Counterscreen for […] of the human trace amine associated receptor 1 (TAAR1): Fluorescence-based cell-based high throughput dose response assay to identify nonselective Ga16 agonists.; format: functional
[29] = target: T3, Trace amine-associated receptor 1 (Homo sapiens, UniProt Q96RJ0); assay: Fluorescence-based cell-based high throughput dose response assay to identify antagonists of the human trace amine associated receptor 1 (TAAR1).; format: functional
T3 sequence (Q96RJ0 whole entry): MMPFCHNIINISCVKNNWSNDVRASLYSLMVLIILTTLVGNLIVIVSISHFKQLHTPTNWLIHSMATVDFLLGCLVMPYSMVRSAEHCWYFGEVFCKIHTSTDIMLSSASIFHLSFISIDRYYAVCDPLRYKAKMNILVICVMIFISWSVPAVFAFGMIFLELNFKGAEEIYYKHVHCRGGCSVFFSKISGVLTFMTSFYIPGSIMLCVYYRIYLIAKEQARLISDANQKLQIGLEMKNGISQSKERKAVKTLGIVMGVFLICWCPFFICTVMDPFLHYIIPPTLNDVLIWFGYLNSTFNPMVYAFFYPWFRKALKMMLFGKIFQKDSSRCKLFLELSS

[30] = Counterscreen for antagonists of the human trace amine associated receptor 1 (hTAAR1): Fluorescence-based cell-based high throughput dose response assay to identify nonselective Ga16 antagonists.; format: functional
[31] = target: T3, Trace amine-associated receptor 1; assay: Counterscreen for antagonists of the human trace amine associated receptor 1 (hTAAR1): Fluorescence-based cell-based high throughput dose response assay to identify TAAR1 Agonists.; format: functional
HEK293 = assay: HEK293T cell cytotoxicity, dose response, cytotoxicity control, ATP luminescence, cherry-pick samples (AID 687005); format: functional, cell-based; conditions: Homo sapiens;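 also: cells exposed to compound for 48 hours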
[32] = HEK293 Cytotoxicity Assay Measured in Cell-Based System Using Plate Reader - 7071-01_Inhibitor_Dose_CherryPick_Activity_Set2.; format: functional

Structure (SMILES): CC[n+]1c(/C=C/N(C)c2ccccc2)sc2ccc(Cl)cc21
AC50 [1]: 9.07 µM (active) | IC50 [2]: > 80 µM (inactive) | AC50 (Cytochrome P450 3A4): 17.8 µM (inconclusive)

Structure (SMILES): COc1cc2c(cc1OC)C(=O)N1[C@H]3c4cc(Cl)ccc4OC[C@@H]3[C@H](c3ccccc3)[C@]1(C)C(=O)N2
AC50 [3]: 8.86 µM (active) | AC50 [4]: 53.4 µM (active) | AC50 [5]: 21 µM (active) | IC50 [6]: > 69.5 µM (inactive) | IC50 [7]: > 69.5 µM (inactive)

Structure (SMILES): Cc1ccc(/C=C2\SC(=S)N(CCCC(=O)NNC(=O)c3ccccc3O)C2=O)cc1
IC50 [8]: > 80 µM (inactive) | IC50 [9]: 28.3 µM (active) | IC50 [10]: > 100 µM (inactive) | IC50 (Prothrombin): 32.8 µM (active) | IC50 (Albumin): > 94.1 µM (inactive)

Structure (SMILES): c1csc(-c2ccc(N3CCOCC3)nn2)c1
AC50 [11]: 26 µM (active)

Structure (SMILES): Cc1cc2c(C)cc(=O)oc2c2c1NCCC2
EC50 [12]: > 50 µM (not active) | AC50 (cells [13]): > 52 µM (inactive) | AC50 (cells [14]): > 52 µM (inactive)

IC50 [15]: > 123 µM (inactive) | IC50 [16]: > 123 µM (inactive)
Structure (SMILES): CCOC(=O)/C(C#N)=C1/C=CN(C)C=N1

Structure (SMILES): CC(=O)c1c[nH]c(C(=O)NCc2cccc(C(F)(F)F)c2)c1
IC50 [17]: 2.07 µM (active) | IC50 [18]: 83.3 µM (inactive) | IC50 [19]: 1.16 µM (active) | IC50 [20]: > 83.3 µM (inactive)

Structure (SMILES): Clc1cccc(-c2nnc(-c3ccccc3)o2)c1
EC50 [21]: 50.7 µM (active) | EC50 [22]: 49 µM (active) | EC50 (HT-1080): > 50 µM (not active) | EC50 [23]: 26.3 µM (active) | EC50 [24]: > 67.5 µM (inactive)

Structure (SMILES): COc1ccc(CN(C)C[C@@H]2Oc3c(NC(=O)c4ccncc4)cccc3C(=O)N([C@@H](C)CO)C[C@H]2C)cc1
AC50 [25]: 0.388 µM (active) | AC50 [26]: 0.0382 µM (active) | IC50 [27]: 0.18 µM (active)

Structure (SMILES): COC(=O)Cc1nnn2c1[C@H](C)[C@H](c1ccccc1Br)OCC2
EC50 [28]: > 29.9 µM (inactive) | IC50 [29]: 1.28 µM (active) | IC50 [30]: > 29.9 µM (inactive) | EC50 [31]: > 29.9 µM (inactive)

Structure (SMILES): COc1ccccc1C#Cc1ccc2c(c1)O[C@@H](CN(C)C(C)=O)[C@@H](C)CN([C@H](C)CO)S2(=O)=O
AC50 (HEK293): 9.59 µM (active) | AC50 [32]: 9.59 µM (active)
